The results in this text go back to ChEMBL document CHEMBL4665629, “An optimised series of substituted N-phenylpyrrolamides as DNA gyrase B inhibitors” (Eur J Med Chem, 2019).

Molecules are shown by their SMILES. Converted amounts (≈) assume the structure as drawn.

Test [1] deals with Staphylococcus aureus. In words: Antibacterial activity against Staphylococcus aureus assessed as bacterial growth inhibition incubated for 18 to 24 hrs by alamar blue assay. The class given is functional. The following applies: time hrs 18-24.
A short description of test [2]: Inhibition of Escherichia coli DNA GyraseB incubated for 10 mins followed by ATP substrate addition by coupled spectrophotometric analysis.
The test system of test [3] is Escherichia coli. In words: Antibacterial activity against Escherichia coli assessed as bacterial growth inhibition incubated for 18 to 24 hrs by alamar blue assay. The class given is functional. The following applies: time hrs 18-24.
Test [4] concerns the target DNA gyrase (Escherichia coli, UniProt P0AES4+P0AES6). In words: Inhibition of Escherichia coli DNA gyrase (A2B2 tetramer) incubated for 60 mins in presence of ATP by malachite green reagent based spectrophotometric analysis. The class given is protein-complex assay.
For test [5], the system named is Enterococcus faecalis. In words: Antibacterial activity against Enterococcus faecalis ATCC 29212 assessed as bacterial growth inhibition by CLSI protocol based broth dilution or agar dilution method. The class given is functional.
Test [6] is described as follows: Inhibition of Escherichia coli DNA topoisomerase 4.

On to `CNc1cc(F)cc2c1[nH]c1nc(Oc3cnc(C)nc3)nc(N3C[C@@H]4[C@H](N)C[C@]4(C)C3)c12`, for which the MIC in test [1] is 0.002 µg/mL (≈ 0.00446 µM); in test [3], 0.06 µg/mL (≈ 0.134 µM). The molecule also came in with an IC50 in test [2] of 0.3 nM.
For `CCNC(=O)Nc1nc2cc(-c3cnc(N4CCC(C)(C(=O)O)CC4)nc3)cc(-c3ccccn3)c2s1`, the half-inhibitory concentration (IC50) in test [4] stood at 4.1 nM; in test [6] it was 46 nM. For the same molecule, the minimal inhibitory concentration (MIC) in test [5] is 0.03 µg/mL (≈ 0.058 µM).
